Measured values reported in PMC11931645, “Semisynthetic derivatives of massarilactone D with cytotoxic and nematicidal activities” (Beilstein Journal of Organic Chemistry, 2025).
“Also recorded” adds a separate entry of the source. Read-outs that look alike come from different tables or passages of the source.

Assays:
Caenorhabditis elegans = assay: Nematicidal activity, microtiter plate assay; format: cell-based; details: for LD50 / LD90 / nematicidal activity (in words): C. elegans; for LD50 / LD90: tested at 100, 50, 25 and 12.5 μg/mL, no: not obtained; for mortality: at concentrations of 50 and 100 μg/mL
Description: Nematicidal activity was performed using Caenorhabditis elegans in a microtiter plate assay as described by Rupcic et al. (2018). The assay was performed in four concentrations (100, 50, 25 and 12.5 μg/mL). Ivermectin was used as a positive control at the same concentration ranges as the tested compounds and MeOH was used as a negative control. Percentages of mortality were calculated, then the results were expressed as a LD90 and LD50.

[1] = system: L929, KB3-1, A549, PC-3, A431, SKOV-3 and MCF-7 cell lines; assay: Cytotoxicity, MTT method, statements over the cell line panel; format: cell-based
Description: (§1) The cytotoxicity against the murine fibroblasts L929, human cervix carcinoma KB-3-1, human lung carcinoma A549, human prostate cancer PC-3, epidermoid carcinoma A431, ovarian carcinoma SKOV-3, and breast cancer MCF-7 cell lines was determined by using the MTT (2-(4,5-dimethylthiazol-2-yl)-2,5-diphenyltetrazolium bromide) method in 96-well microplates as previously described. Briefly, the cell lines were cultured in DMEM (Gibco), 60 µL aliquots of serial dilutions from an initial stock of 1 mg/mL in MeOH of the test compounds were added to 120 µL aliquots of a cell suspension (5 × 10^4 cells/mL) in 96-well microplates. After 5 days incubation, an MTT assay was performed, and the absorbance measured at 590 nm using an ELISA plate reader (Victor). The concentration at which the growth of cells was inhibited to 50% of the control (IC50) was obtained from the dose–response curves. Epothilone B was used as the positive control.

[2] = set-up: method as in PMID 28991218; details: cited from earlier work
[3] = set-up: method as in PMID 28991218; details: cited from earlier work; remark: listed apart in the source
[4] = system: human prostate cancer PC-3; assay: Cytotoxicity, MTT method, PC-3; format: cell-based; details: 120 h, read-out: IC50 PC-3
Description: as §1

breast cancer MCF-7 = assay: Cytotoxicity, MTT method, MCF-7; format: cell-based; details: Homo sapiens, MCF7, 120 h, read-out: IC50 MCF-7
Description: as §1

murine fibroblasts L929 = assay: Cytotoxicity, MTT method, L929; format: cell-based; details: Mus musculus, L929, 120 h, read-out: IC50 L929
Description: as §1

[5] = system: human cervix carcinoma KB-3-1; assay: Cytotoxicity, MTT method, KB-3-1; format: cell-based; details: KB 3-1, 120 h, 5 days incubation, na: not active, read-out: IC50 KB3.1
Description: as §1

[6] = system: epidermoid carcinoma A431; assay: Cytotoxicity, MTT method, A431; format: cell-based; details: Homo sapiens, A-431, 120 h, 5 days incubation, na: not active
Description: as §1

[7] = system: human lung carcinoma A549; assay: Cytotoxicity, MTT method, A549; format: cell-based; details: A549, 120 h, 5 days incubation, na: not active
Description: as §1

ovarian carcinoma SKOV-3 = assay: Cytotoxicity, MTT method, SKOV-3; format: cell-based; details: Homo sapiens, SK-OV-3, 120 h, 5 days incubation, na: not active
Description: as §1

Hs683 = system: Hs683; set-up: method as in PMID 36006179; details: human cancer cell line; cited from earlier work
A549 = system: A549; set-up: method as in PMID 36006179; details: human cancer cell line; cited from earlier work
SKMEL-28 = system: SKMEL-28; set-up: method as in PMID 36006179; details: human cancer cell line; cited from earlier work
[8] = MTT, 5 days incubation, na: not active
[9] = read-out: IC50 values, range against the L929 and KB3-1 cell lines
[10] = all tested cell lines, read-out: IC50 values, range against all the tested cell lines

| Structure (SMILES) | LD50 (Caenorhabditis elegans) | LD90 (Caenorhabditis elegans) | mortality (Caenorhabditis elegans) | cytotoxic activity (in words) ([1]; all tested cell lines) | IC50 [5] | IC50 (murine fibroblasts L929; [8]) | other results |
| --- | --- | --- | --- | --- | --- | --- | --- |
| C/C=C/[C@@H]1OC2=C(C(=O)O[C@]2(C)O)[C@H](O)[C@H]1O [Compound 1, Massarilactone D] | not obtained and no | no | some mortality | not active |  |  | cytotoxic activity (in words) [2]: did not exhibit significant antimicrobial or cytotoxic activities; antimicrobial activity (in words) [3]: did not exhibit significant antimicrobial |
| C/C(=C\c1csc(C)n1)[C@@H]1C[C@@H]2O[C@]2(C)CCC[C@H](C)[C@H](O)[C@@H](C)C(=O)C(C)(C)[C@@H](O)CC(=O)O1 [epothilone B, Epothilone B, reference compound] |  |  |  |  |  |  | IC50 [4]: 9.1e-05 µM; IC50 (breast cancer MCF-7): 7.5e-05 µM; IC50 (murine fibroblasts L929): 0.0022 µM |
| C/C=C/C(=O)O[C@H]1C2=C(O[C@@H](/C=C/C)[C@@H]1O)[C@@](C)(OC)OC2=O [Compound 7, massarilactone D 4-O-crotonyl-7-O-methyl] | not obtained and no | no | some mortality |  | 55.6 µM | 61.7 µM | IC50 [1, 9]: 18.5 to 61.7 µM |
| C=C(C)C(=O)O[C@H]1[C@H](/C=C/C)OC2=C(C(=O)O[C@]2(C)OC(=O)C2(C)CCC(C)=C(Cl)O2)[C@@H]1OC(=O)C(=C)C (stereo partly drawn) [Compound 2, massarilactone D 3,4-di-O-methacryloyl-7-O-(6-chloro-3,4-dihydro-2,5-dimethyl-2H-pyran-2-carbonyl)] |  |  |  | significant cytotoxicity | 13.1 µM | 5.09 µM | IC50 [6]: 4 µM; IC50 [7]: 32.7 µM; IC50 (ovarian carcinoma SKOV-3): 11.8 µM; IC50 [4, 8]: 11.8 µM; IC50 (breast cancer MCF-7; [8]): 7.09 µM; IC50 [1, 10]: 3.51 to 32.7 µM |
| C=C1OC(=O)C2=C1O[C@@H](/C=C/C)[C@H](OC(=O)/C=C/c1ccccc1)[C@H]2OC(=O)/C=C/c1ccccc1 [Compound 3, massarilactone H 3,4-di-O-trans-cinnamoyl] |  |  |  | significant cytotoxicity | 7.85 µM | 5.58 µM | IC50 [6]: 4.34 µM; IC50 [7]: 19.6 µM; IC50 (ovarian carcinoma SKOV-3): 13.2 µM; IC50 [4, 8]: 7.64 µM; IC50 (breast cancer MCF-7; [8]): 3.51 µM; nematicidal activity (in words) (Caenorhabditis elegans): did not exhibit nematicidal activity; IC50 [1, 10]: 3.51 to 32.7 µM |
| C/C=C/C(=O)O[C@H]1C2=C(O[C@@H](/C=C/C)[C@@H]1O)[C@@](C)(OC(=O)/C=C/C)OC2=O [Compound 8, massarilactone D 4,7-di-O-crotonyl] | not obtained and no | no | some mortality |  | 18.5 µM | 50.3 µM | IC50 [1, 9]: 18.5 to 61.7 µM |
| C=C1OC(=O)C2=C1OC(/C=C/C)C(O)C2O (stereo not drawn) [massarilactone H] |  |  |  |  |  |  | IC50 (Hs683): 31.5 µM; IC50 (A549): 32.9 µM; IC50 (SKMEL-28): 35.2 µM |
| C/C=C/[C@@H]1OC2=C(C(=O)O[C@]2(C)O)[C@H](O)[C@H]1OC(=O)/C(C)=C/C [Compound 6, massarilactone D 7-O-trans-2-methyl-2-butenoyl] | not obtained and no | no | some mortality |  |  |  |  |
| C/C=C/[C@@H]1OC2=C(C(=O)O[C@]2(C)OC(=O)/C=C/c2ccccc2)[C@H](OC(=O)/C=C/c2ccccc2)[C@H]1OC(=O)/C=C/c1ccccc1 [Compound 4, massarilactone D 3,4,7-tri-O-trans-cinnamoyl] | 12.5 µg/mL | 100 µg/mL |  |  |  |  | nematicidal activity (in words) (Caenorhabditis elegans): potent activity against nematodes; also recorded: good nematicidal activity |
| C/C=C/[C@@H]1OC2=C(C(=O)O[C@]2(C)OC(=O)c2ccc(Br)cc2)[C@H](OC(=O)c2ccc(Br)cc2)[C@H]1OC(=O)c1ccc(Br)cc1 [Compound 5, massarilactone D 3,4,7-tri-O-bromobenzoyl] | 100 µg/mL | not obtained and no |  |  |  |  |  |
